Values after ≈ are worked out from the molar mass of the structure shown.
Columns and labels:
[1] = system: Moraxella catarrhalis; assay: Antibacterial activity against Moraxella catarrhalis B0324 by agar microdilution method; assay type: functional
[2] = system: Streptococcus pneumoniae; assay: Antibacterial activity against erythromycin-susceptible Streptococcus pneumoniae B0541 by agar microdilution method
[3] = system: Staphylococcus aureus; assay: Antibacterial activity against erythromycin A-susceptible Staphylococcus aureus B0329 by agar microdilution method
[4] = system: Streptococcus pneumoniae; assay: Antibacterial activity against efflux-resistant Streptococcus pneumoniae B0326 by agar microdilution method; assay type: functional
[5] = system: Streptococcus pyogenes; assay: Antibacterial activity against constitutive macrolide-lincosamide-streptogramin B-resistant Streptococcus pyogenes B0544 by agar microdilution method; assay type: functional
[6] = system: Streptococcus pyogenes; assay: Antibacterial activity against erythromycin A-susceptible Streptococcus pyogenes B0542 by agar microdilution method
[7] = system: Haemophilus influenzae; assay: Antibacterial activity against Haemophilus influenzae B0529 by agar microdilution method; assay type: functional
[8] = system: Streptococcus pyogenes; assay: Antibacterial activity against efflux-resistant Streptococcus pyogenes B0545 by agar microdilution method; assay type: functional
[9] = system: Staphylococcus aureus; assay: Antibacterial activity against inducible macrolide-lincosamide-streptogramin B-resistant Staphylococcus aureus B0538 by agar microdilution method; assay type: functional
[10] = system: Streptococcus pneumoniae; assay: Antibacterial activity against constitutive macrolide-lincosamide-streptogramin B-resistant Streptococcus pneumoniae B0627 by agar microdilution method; assay type: functional
[11] = system: Staphylococcus aureus; assay: Antibacterial activity against constitutive macrolide-lincosamide-streptogramin B-resistant Staphylococcus aureus B0330 by agar microdilution method; assay type: functional
[12] = system: Streptococcus pyogenes; assay: Antibacterial activity against inducible macrolide-lincosamide-streptogramin B-resistant Streptococcus pyogenes B0543 by agar microdilution method; assay type: functional
[13] = system: Staphylococcus aureus; assay: Antibacterial activity against efflux-resistant Staphylococcus aureus B0331 by agar microdilution method; assay type: functional

SMILES | MIC [1] | MIC [2] | MIC [3] | MIC [4] | MIC [5] | MIC [6] | MIC [7] | MIC [8] | MIC [9] | MIC [10] | MIC [11] | MIC [12] | MIC [13]
CC[C@H]1OC(=O)[C@H](C)C(=O)[C@H](C)[C@@H](O[C@@H]2O[C@H](C)C[C@H](N(C)C)[C@H]2O)[C@](C)(OCC(O)CNCCCCc2ccccn2)C[C@@H](C)NC(=O)[C@H](C)[C@@H](O)[C@]1(C)O (some centres undefined) | ≤ 0.125 µg/mL | ≤ 0.125 µg/mL | 1 µg/mL (≈ 1.26 µM) | 4 µg/mL (≈ 5.03 µM) | 32 µg/mL (≈ 40.3 µM) | 0.25 µg/mL (≈ 0.314 µM) | 4 µg/mL (≈ 5.03 µM) | 1 µg/mL (≈ 1.26 µM) | 4 µg/mL (≈ 5.03 µM) | 2 µg/mL (≈ 2.52 µM) | > 64 µg/mL | 0.5 µg/mL (≈ 0.629 µM) | 2 µg/mL (≈ 2.52 µM)
CC[C@H]1OC(=O)[C@H](C)C(=O)[C@H](C)[C@@H](O[C@@H]2O[C@H](C)C[C@H](N(C)C)[C@H]2O)[C@](C)(OCC(O)CNCCc2ccccn2)C[C@@H](C)NC(=O)[C@H](C)[C@@H](O)[C@]1(C)O (mixture of isomers) | 4 µg/mL | 1 µg/mL | 8 µg/mL | 16 µg/mL | 32 µg/mL | 0.25 µg/mL | 32 µg/mL | 4 µg/mL | 8 µg/mL | 8 µg/mL | > 64 µg/mL | 4 µg/mL | 8 µg/mL
CC[C@H]1OC(=O)[C@H](C)C(=O)[C@H](C)[C@@H](O[C@@H]2O[C@H](C)C[C@H](N(C)C)[C@H]2O)[C@](C)(OCC(O)CNc2cnc3ccccc3c2)C[C@@H](C)NC(=O)[C@H](C)[C@@H](O)[C@]1(C)O (some centres undefined) | 0.5 µg/mL (≈ 0.634 µM) | ≤ 0.125 µg/mL | 2 µg/mL (≈ 2.53 µM) | 2 µg/mL (≈ 2.53 µM) | 16 µg/mL (≈ 20.3 µM) | ≤ 0.125 µg/mL | 8 µg/mL (≈ 10.1 µM) | 8 µg/mL (≈ 10.1 µM) | 2 µg/mL (≈ 2.53 µM) | 8 µg/mL (≈ 10.1 µM) | > 64 µg/mL | 4 µg/mL (≈ 5.07 µM) | 1 µg/mL (≈ 1.27 µM)
